From the supplement of paper PMC10307832 come the findings set out here.

Holding throughout (test): relative viability (nuclei count vs DMSO), 5 days (fraction); higher = more cells survive
Compound in assay [1]: CC(C)C[C@H](NC(=O)[C@H](CCc1ccccc1)NC(=O)CN1CCOCC1)C(=O)N[C@@H](Cc1ccccc1)C(=O)N[C@@H](CC(C)C)C(=O)[C@@]1(C)CO1 [Carfilzomib] + CC(=O)c1c(C)c2cnc(Nc3ccc(N4CCNCC4)cn3)nc2n(C2CCCC2)c1=O [Palbociclib] (partner 0.5 µM)
Put shortly: (§1)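 After 5 days of treatment, lung cancer cells in 1536-well plates were fixed and stained in a single step (final 0.05% Triton X-100, 1% formaldehyde, 1 ug/ml Hoechst) and their nuclei counted on 4× images. Treatment had been applied by pin tool the day after seeding as one drug alone or as a fixed anchor-drug dose with five library-drug doses (not always all listed) in √10 steps. Relative viability is the nuclei count of treated wells divided by that of vehicle wells, and values are medians of duplicate plates.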

Compound in the assay “Crizotinib + Luminespib”: C[C@@H](Oc1cc(-c2cnn(C3CCNCC3)c2)cnc1N)c1c(Cl)ccc(F)c1Cl [Crizotinib] + CCNC(=O)c1noc(-c2cc(C(C)C)c(O)cc2O)c1-c1ccc(CN2CCOCC2)cc1 [Luminespib] (partner 0.01 µM)
Put shortly: as §1

Compound in the assay “Crizotinib + Pictilisib”: C[C@@H](Oc1cc(-c2cnn(C3CCNCC3)c2)cnc1N)c1c(Cl)ccc(F)c1Cl [Crizotinib] + CS(=O)(=O)N1CCN(Cc2cc3nc(-c4cccc5[nH]ncc45)nc(N4CCOCC4)c3s2)CC1 [Pictilisib] (partner 1 µM)
The method, boiled down:
as §1

Compound in the assay “Crizotinib + Palbociclib”: C[C@@H](Oc1cc(-c2cnn(C3CCNCC3)c2)cnc1N)c1c(Cl)ccc(F)c1Cl [Crizotinib] + CC(=O)c1c(C)c2cnc(Nc3ccc(N4CCNCC4)cn3)nc2n(C2CCCC2)c1=O [Palbociclib] (partner 0.5 µM)
Put shortly: as §1

Compound in the assay “Carfilzomib + Vorinostat”: CC(C)C[C@H](NC(=O)[C@H](CCc1ccccc1)NC(=O)CN1CCOCC1)C(=O)N[C@@H](Cc1ccccc1)C(=O)N[C@@H](CC(C)C)C(=O)[C@@]1(C)CO1 [Carfilzomib] + O=C(CCCCCCC(=O)Nc1ccccc1)NO [Vorinostat] (partner 1 µM)
Put shortly: as §1

Consider NCI-H1793, for which the relative viability in assay [1] (first compound 0.001 µM) was 0.338; in assay [1] (first compound 0.003162 µM) it was 0.402; in assay [1] (first compound 0.01 µM), 0.331; in assay [1] (first compound 0.03162 µM) it was 0.275; in assay [1] (first compound 0.1 µM), 0.197; with Crizotinib + Luminespib (first compound 0.03162 µM), 0.209. In addition, the relative viability with Crizotinib + Luminespib (first compound 0.1 µM) was found to be 0.178; in the assay with Crizotinib + Luminespib (first compound 1 µM) it was 0.161; in the assay with Crizotinib + Pictilisib (first compound 0.01 µM) it was 0.355; with Crizotinib + Pictilisib (first compound 0.03162 µM) it was 0.385; with Crizotinib + Pictilisib (first compound 0.1 µM), 0.339; with Crizotinib + Pictilisib (first compound 1 µM), 0.364. The relative viability in the assay with Crizotinib + Palbociclib (first compound 0.03162 µM) was 0.339; with Crizotinib + Palbociclib (first compound 0.1 µM), 0.311; with Crizotinib + Palbociclib (first compound 1 µM), 0.277; with Carfilzomib + Vorinostat (first compound 0.001 µM) it was 0.605; in the assay with Carfilzomib + Vorinostat (first compound 0.003162 µM) it was 1; with Carfilzomib + Vorinostat (first compound 0.01 µM), 0.7. Besides, the results for the relative viability with Carfilzomib + Vorinostat (first compound 0.03162 µM) and with Carfilzomib + Vorinostat (first compound 0.1 µM) were 0.396 and 0.107, respectively.
